Strand notation (5' to 3'): a small letter for the sugar, then the base; units joined by * are phosphorothioate-linked, units joined directly phosphodiester-linked; [ ] holds rarer units or linkages, { } end groups; capitals alone tell only the bases. e = 2'-O-(2-methoxyethyl) (MOE); [5mC] = 5-methylcytosine; d = 2'-deoxy (DNA)
What was measured:
[1] = Triglyceride, total cholesterol, HDL, LDL, free fatty acid and glucose levels (Example 3, Table 28); type: in vivo, mouse; parameters: Free Fatty Acid (FFA): unit not given here; settings: Balb/c mice
Description: (§1) Antisense compound doses included 2.4, 1.2, 0.6, 0.3 and 0.15 μmol/kg. For antisense compounds 14 nucleotides in length, these doses equate to approximately 12, 6, 3, 1.5 or 0.75 mg/kg, respectively. Shown in Table 25 are the sequences and motifs of the antisense compounds used in this study. […] Bolded residues indicate 2′-O-methoxyethyl moieties and italicized residues indicate methyleneoxy (4′-CH2—O-2′) BNAs. The internucleoside linkages of each compound are phosphorothioate throughout. All cytosine residues of ISIS 147764 and ISIS 372938 are replaced by 5-methyl cytosines. For ISIS 387462, only the cytosine residue in the wing of the compound is replaced by 5-methyl cytosine. ApoB antisense compounds are targeted to publicly available ApoB-100 sequences, including Genbank Accession No. XM—137955.5 (SEQ ID NO: 2).
(§2) Forty-eight hours following the final injection, mice were sacrificed to evaluate transaminases (Table 26); liver and kidney weight (Table 27); triglyceride, LDL, HDL and free fatty acid levels (Table 28); target mRNA level in liver (Table 29); target protein level in plasma; and oligonucleotide tissue concentration (Table 30). These endpoints were determined using methods described herein and well known to those of ordinary skill in the art.
Glucose levels also were similar among all treatment groups.

[2] = ALT and AST levels, Balb/c mice (Example 3, Table 26); type: in vivo, mouse; settings: 48 h after final injection
Description: as §1, §2

[3] = Liver and kidney weight, total body weight and food consumption (Example 3, Table 27); type: in vivo, mouse; settings: Balb/c mice
Description: as §1, §2

ApoB mRNA = ApoB mRNA level in liver of Balb/c mice, i.p. twice per week for three weeks (Example 3, Table 29); type: in vivo, mouse; settings: for ApoB mRNA level: Table 30 (rounded); for % ApoB mRNA Level (relative to saline control): liver
Description: Prior to quantitative PCR analysis, primer-probe sets specific to the target gene being measured were evaluated for their ability to be “multiplexed” with a GAPDH amplification reaction. After isolation the RNA is subjected to sequential reverse transcriptase (RT) reaction and real-time PCR, both of which are performed in the same well. RT and PCR reagents were obtained from Invitrogen Life Technologies (Carlsbad, Calif.). […] The RT reaction was carried out by incubation for 30 minutes at 48° C. Following a 10 minute incubation at 95° C. to activate the […]® Taq, 40 cycles of a two-step PCR protocol were carried out: 95° C. for 15 seconds (denaturation) followed by 60° C. for 1.5 minutes (annealing/extension).
as §1, §2

[4] = Full-length and total antisense compound tissue concentration in liver and kidney (Example 3, Table 30); type: in vivo, mouse; settings: Balb/c mice, 2.4 μmol/kg i.p. twice per week for three weeks
Description: as §1, §2
To determine whether the observed increase in efficiency with the methyleneoxy (4′-CH2—O-2′) BNA gapmer is due to an increase in oligonucleotide accumulation, full-length and total oligonucleotide concentration in the liver and kidney were determined.

monkey GCGR mRNA = assay: Antisense inhibition of GCGR in primary monkey hepatocytes, 25-200 nM (Example 21, Table 80); type: cell-based; settings: relative to untreated control cells
Description: Additional short antisense compounds targeted to a GCGR nucleic acid were tested for their effects on monkey GCGR mRNA in vitro. Cultured primary monkey hepatocytes were treated as described herein with 25, 50, 100 or 200 nM of short antisense compound. After the treatment period, RNA was isolated from the cells and GCGR mRNA levels were measured by quantitative real-time PCR, as described herein. GCGR mRNA levels were adjusted according to total RNA content as measured by RIBOGREEN®. Results are presented in Table 80 as percent reduction in GCGR mRNA, relative to untreated control cells.

[5] = 2.4 μmol/kg i.p. twice per week for three weeks
[6] = 0.15 μmol/kg i.p. twice per week for three weeks
[7] = 0.3 μmol/kg i.p. twice per week for three weeks
[8] = 0.6 μmol/kg i.p. twice per week for three weeks
[9] = 1.2 μmol/kg i.p. twice per week for three weeks

For “147764 (antisense eG*eT*e[5mC]*e[5mC]*e[5mC]*dT*dG*dA*dA*dG*dA*dT*dG*dT*d[5mC]*eA*eA*eT*eG*e[5mC]) [compound 147764]”, the “Free Fatty Acid (FFA)” value [1, 5] was 1.29, the HDL [1, 5] was 81.3 mg/dL and the LDL [1, 5] was 10.3 mg/dL. For the same substance, the “Total Cholesterol (CHOL)” value [1, 5] was 107 mg/dL, the “Triglyceride (TRIG)” value [1, 5] was 167 mg/dL and the ALT [2, 5] was 29.5 IU/L. The AST [2, 5] was 64.0 IU/L, the “Kidney Weight” value [3, 5] was 105 % of saline control and the “Liver Weight” value [3, 5] was 102 % of saline control. The “ApoB mRNA level” value (ApoB mRNA; [5]) was 58 % of saline control, the “% ApoB mRNA Level (relative to saline control)” value (ApoB mRNA; [5]) was 57.7% and the “Kidney Full-Length antisense compound tissue concentration” value [4] was 28.6 µM. The “Kidney Total antisense compound tissue concentration” value [4] was 33.5 µM, the “Liver Full-Length antisense compound tissue concentration” value [4] was 22.9 µM and the “Liver Total antisense compound tissue concentration” value [4] was 31.3 µM.

In the case of “327131 (antisense eA*eT*eG*dT*dT*dG*dG*d[5mC]*d[5mC]*dG*dT*eG*eG*eT) [compound 327131]”, the “percent reduction in GCGR mRNA” value (monkey GCGR mRNA; 25 nM) is reported as 0, the “percent reduction in GCGR mRNA” value (monkey GCGR mRNA; 50 nM) is reported as −8 and the “percent reduction in GCGR mRNA” value (monkey GCGR mRNA; 100 nM) is reported as −36. For the same substance, the “percent reduction in GCGR mRNA” value (monkey GCGR mRNA; 200 nM) was −36.

For “372938 (antisense eG*eG*dT*dA*d[5mC]*dA*dT*dG*dG*dA*dA*dG*eT*e[5mC]) [compound 372938]”, the “Free Fatty Acid (FFA)” value [1, 6] was 1.57, the HDL [1, 6] was 82.8 mg/dL and the LDL [1, 6] was 10.8 mg/dL. The “Total Cholesterol (CHOL)” value [1, 6] was 106 mg/dL, the “Triglyceride (TRIG)” value [1, 6] was 151 mg/dL and the “Free Fatty Acid (FFA)” value [1, 7] was 1.53. For the same substance, the HDL [1, 7] was 84.3 mg/dL, the LDL [1, 7] was 11.0 mg/dL and the “Total Cholesterol (CHOL)” value [1, 7] was 109 mg/dL. For the same substance, the “Triglyceride (TRIG)” value [1, 7] was 138 mg/dL, the “Free Fatty Acid (FFA)” value [1, 8] was 1.66 and the HDL [1, 8] was 83.3 mg/dL. For the same substance, the LDL [1, 8] was 10.8 mg/dL, the “Total Cholesterol (CHOL)” value [1, 8] was 110 mg/dL and the “Triglyceride (TRIG)” value [1, 8] was 184 mg/dL. The “Free Fatty Acid (FFA)” value [1, 9] was 1.70, the HDL [1, 9] was 77.8 mg/dL and the LDL [1, 9] was 9.5 mg/dL. The “Total Cholesterol (CHOL)” value [1, 9] was 101 mg/dL, the “Triglyceride (TRIG)” value [1, 9] was 136 mg/dL and the “Free Fatty Acid (FFA)” value [1, 5] was 1.28. For the same substance, the HDL [1, 5] was 79.0 mg/dL, the LDL [1, 5] was 10.3 mg/dL and the “Total Cholesterol (CHOL)” value [1, 5] was 104 mg/dL. For the same substance, the “Triglyceride (TRIG)” value [1, 5] was 153 mg/dL, the ALT [2, 6] was 28.3 IU/L and the AST [2, 6] was 50.3 IU/L. For the same substance, the ALT [2, 7] was 28.3 IU/L, the AST [2, 7] was 60.0 IU/L and the ALT [2, 8] was 28.0 IU/L. The AST [2, 8] was 79.3 IU/L, the ALT [2, 9] was 24.8 IU/L and the AST [2, 9] was 49.5 IU/L. The ALT [2, 5] was 26.0 IU/L, the AST [2, 5] was 49.0 IU/L and the “Kidney Weight” value [3, 6] was 98 % of saline control. For the same substance, the “Liver Weight” value [3, 6] was 96 % of saline control, the “Kidney Weight” value [3, 7] was 107 % of saline control and the “Liver Weight” value [3, 7] was 91 % of saline control. For the same substance, the “Kidney Weight” value [3, 8] was 112 % of saline control, the “Liver Weight” value [3, 8] was 96 % of saline control and the “Kidney Weight” value [3, 9] was 101 % of saline control. The “Liver Weight” value [3, 9] was 90 % of saline control, the “Kidney Weight” value [3, 5] was 100 % of saline control and the “Liver Weight” value [3, 5] was 100 % of saline control. For the same substance, the “ApoB mRNA level” value (ApoB mRNA; [5]) was 77 % of saline control, the “% ApoB mRNA Level (relative to saline control)” value (ApoB mRNA; [6]) was 93.1% and the “% ApoB mRNA Level (relative to saline control)” value (ApoB mRNA; [7]) was 92.6%. For the same substance, the “% ApoB mRNA Level (relative to saline control)” value (ApoB mRNA; [8]) was 87.3%, the “% ApoB mRNA Level (relative to saline control)” value (ApoB mRNA; [9]) was 90.0% and the “% ApoB mRNA Level (relative to saline control)” value (ApoB mRNA; [5]) was 77.0%. The “Kidney Full-Length antisense compound tissue concentration” value [4] was 32.0 µM, the “Kidney Total antisense compound tissue concentration” value [4] was 34.0 µM and the “Liver Full-Length antisense compound tissue concentration” value [4] was 5.49 µM. For the same substance, the “Liver Total antisense compound tissue concentration” value [4] was 7.76 µM.

— US8188059B2, “Compounds and methods for modulating expression of GCGR” (Isis Pharmaceuticals, Inc., priority 2006, dated 2012)
